Data reported in ChEMBL document CHEMBL5303766, “Data for DCP probe FHT-2344” (2022).

Key:
[1] = target: Serine/threonine-protein kinase Chk2 (Homo sapiens) (UniProt O96017); assay: CHEK2 SGC Tm panel (DSF); details: for ΔTm: Compound concentration 10.0 uM
[2] = target: Serine/threonine-protein kinase Nek7 (Homo sapiens) (UniProt Q8TDX7); assay: NEK7 SGC Tm panel (DSF); details: for ΔTm: Compound concentration 10.0 uM
[3] = target: Homeodomain-interacting protein kinase 2 (Homo sapiens) (UniProt Q9H2X6); assay: HIPK2 SGC Tm panel (DSF); details: for ΔTm: Compound concentration 10.0 uM
Homeodomain-interacting protein kinase 2 (Homo sapiens), sequence (Q9H2X6 whole entry, looked up): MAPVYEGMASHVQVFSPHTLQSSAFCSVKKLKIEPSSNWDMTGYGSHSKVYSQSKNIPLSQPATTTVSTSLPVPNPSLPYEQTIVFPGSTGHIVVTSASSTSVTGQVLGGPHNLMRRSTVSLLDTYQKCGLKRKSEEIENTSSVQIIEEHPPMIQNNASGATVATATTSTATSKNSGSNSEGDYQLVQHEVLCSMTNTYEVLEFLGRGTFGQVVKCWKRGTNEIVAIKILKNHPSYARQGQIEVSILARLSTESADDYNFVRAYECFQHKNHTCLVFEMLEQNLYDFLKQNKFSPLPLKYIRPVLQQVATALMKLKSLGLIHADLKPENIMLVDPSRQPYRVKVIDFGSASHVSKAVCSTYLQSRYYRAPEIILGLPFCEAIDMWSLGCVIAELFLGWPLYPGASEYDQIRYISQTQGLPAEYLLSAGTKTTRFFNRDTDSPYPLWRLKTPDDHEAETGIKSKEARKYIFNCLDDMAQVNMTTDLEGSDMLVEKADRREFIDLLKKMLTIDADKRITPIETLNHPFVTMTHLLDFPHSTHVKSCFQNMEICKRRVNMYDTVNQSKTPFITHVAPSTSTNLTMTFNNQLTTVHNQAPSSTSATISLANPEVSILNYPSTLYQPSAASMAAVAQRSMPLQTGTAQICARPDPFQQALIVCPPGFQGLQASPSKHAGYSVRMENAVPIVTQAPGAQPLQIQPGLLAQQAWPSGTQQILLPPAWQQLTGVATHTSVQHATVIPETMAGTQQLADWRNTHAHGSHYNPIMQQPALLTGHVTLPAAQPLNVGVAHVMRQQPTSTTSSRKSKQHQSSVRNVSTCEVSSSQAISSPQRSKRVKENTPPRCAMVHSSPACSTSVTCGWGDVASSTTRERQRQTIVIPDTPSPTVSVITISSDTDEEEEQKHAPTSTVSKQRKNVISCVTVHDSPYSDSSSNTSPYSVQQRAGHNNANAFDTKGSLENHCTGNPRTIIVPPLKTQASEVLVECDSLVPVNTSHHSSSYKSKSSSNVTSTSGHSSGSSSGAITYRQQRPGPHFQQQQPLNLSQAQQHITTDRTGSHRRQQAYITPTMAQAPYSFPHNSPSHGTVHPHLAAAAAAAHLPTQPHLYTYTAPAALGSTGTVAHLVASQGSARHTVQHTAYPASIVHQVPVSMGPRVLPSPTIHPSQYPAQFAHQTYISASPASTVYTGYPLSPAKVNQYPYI

[4] = target: T1, Serine/threonine-protein kinase 4 (Homo sapiens) (UniProt Q13043); assay: STK4 SGC Tm panel (DSF); details: for ΔTm: Compound concentration 10.0 uM
T1 sequence (whole entry): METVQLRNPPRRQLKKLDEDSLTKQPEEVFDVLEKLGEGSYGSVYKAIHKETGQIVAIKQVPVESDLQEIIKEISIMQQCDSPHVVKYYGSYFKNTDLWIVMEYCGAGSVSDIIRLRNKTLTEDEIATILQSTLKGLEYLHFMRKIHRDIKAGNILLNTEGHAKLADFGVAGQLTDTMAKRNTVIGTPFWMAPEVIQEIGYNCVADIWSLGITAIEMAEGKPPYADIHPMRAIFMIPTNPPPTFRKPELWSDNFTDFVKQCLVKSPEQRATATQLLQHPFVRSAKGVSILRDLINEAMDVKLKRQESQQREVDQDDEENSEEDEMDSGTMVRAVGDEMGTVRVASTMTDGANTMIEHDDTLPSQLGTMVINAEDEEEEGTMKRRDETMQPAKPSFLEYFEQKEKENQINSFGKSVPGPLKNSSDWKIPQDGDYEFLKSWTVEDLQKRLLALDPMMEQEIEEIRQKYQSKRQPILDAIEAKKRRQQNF

[5] = target: Tyrosine-protein kinase ABL1 (Homo sapiens) (UniProt P00519); assay: ABL1 SGC Tm panel (DSF); details: for ΔTm: Compound concentration 10.0 uM
Tyrosine-protein kinase ABL1 (Homo sapiens), sequence (P00519 whole entry): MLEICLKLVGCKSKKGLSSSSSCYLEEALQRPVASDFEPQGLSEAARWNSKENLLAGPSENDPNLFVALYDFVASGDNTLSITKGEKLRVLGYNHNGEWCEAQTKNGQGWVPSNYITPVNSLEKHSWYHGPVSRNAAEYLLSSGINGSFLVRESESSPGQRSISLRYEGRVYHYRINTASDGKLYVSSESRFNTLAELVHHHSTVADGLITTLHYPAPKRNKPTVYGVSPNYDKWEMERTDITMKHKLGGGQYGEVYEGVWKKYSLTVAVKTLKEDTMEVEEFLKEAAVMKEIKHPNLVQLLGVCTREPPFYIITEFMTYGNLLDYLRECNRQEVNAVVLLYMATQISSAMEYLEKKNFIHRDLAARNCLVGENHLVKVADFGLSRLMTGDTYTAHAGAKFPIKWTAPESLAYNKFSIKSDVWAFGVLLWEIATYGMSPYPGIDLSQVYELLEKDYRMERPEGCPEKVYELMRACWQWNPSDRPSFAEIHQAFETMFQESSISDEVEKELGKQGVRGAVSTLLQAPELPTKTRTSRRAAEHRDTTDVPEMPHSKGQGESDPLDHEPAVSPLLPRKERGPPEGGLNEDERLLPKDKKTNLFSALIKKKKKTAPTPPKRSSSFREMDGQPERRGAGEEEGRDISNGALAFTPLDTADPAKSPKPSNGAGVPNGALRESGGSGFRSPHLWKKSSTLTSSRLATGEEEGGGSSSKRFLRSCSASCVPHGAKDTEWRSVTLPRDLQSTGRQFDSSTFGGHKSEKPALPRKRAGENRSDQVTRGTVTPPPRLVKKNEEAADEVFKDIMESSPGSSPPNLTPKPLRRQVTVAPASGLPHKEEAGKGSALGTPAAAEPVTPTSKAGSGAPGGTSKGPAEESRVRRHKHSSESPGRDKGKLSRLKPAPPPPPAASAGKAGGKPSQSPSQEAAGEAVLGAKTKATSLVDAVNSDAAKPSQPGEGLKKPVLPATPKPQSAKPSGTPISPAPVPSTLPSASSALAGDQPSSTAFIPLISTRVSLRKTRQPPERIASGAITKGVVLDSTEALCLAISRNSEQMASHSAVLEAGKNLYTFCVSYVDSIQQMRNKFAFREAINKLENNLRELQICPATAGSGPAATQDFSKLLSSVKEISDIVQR

[6] = target: Calcium/calmodulin-dependent protein kinase type II subunit beta (Homo sapiens) (UniProt Q13554); assay: CAMK2B SGC Tm panel (DSF); details: for ΔTm: Compound concentration 10.0 uM
Calcium/calmodulin-dependent protein kinase type II subunit beta (Homo sapiens), sequence (Q13554 whole entry): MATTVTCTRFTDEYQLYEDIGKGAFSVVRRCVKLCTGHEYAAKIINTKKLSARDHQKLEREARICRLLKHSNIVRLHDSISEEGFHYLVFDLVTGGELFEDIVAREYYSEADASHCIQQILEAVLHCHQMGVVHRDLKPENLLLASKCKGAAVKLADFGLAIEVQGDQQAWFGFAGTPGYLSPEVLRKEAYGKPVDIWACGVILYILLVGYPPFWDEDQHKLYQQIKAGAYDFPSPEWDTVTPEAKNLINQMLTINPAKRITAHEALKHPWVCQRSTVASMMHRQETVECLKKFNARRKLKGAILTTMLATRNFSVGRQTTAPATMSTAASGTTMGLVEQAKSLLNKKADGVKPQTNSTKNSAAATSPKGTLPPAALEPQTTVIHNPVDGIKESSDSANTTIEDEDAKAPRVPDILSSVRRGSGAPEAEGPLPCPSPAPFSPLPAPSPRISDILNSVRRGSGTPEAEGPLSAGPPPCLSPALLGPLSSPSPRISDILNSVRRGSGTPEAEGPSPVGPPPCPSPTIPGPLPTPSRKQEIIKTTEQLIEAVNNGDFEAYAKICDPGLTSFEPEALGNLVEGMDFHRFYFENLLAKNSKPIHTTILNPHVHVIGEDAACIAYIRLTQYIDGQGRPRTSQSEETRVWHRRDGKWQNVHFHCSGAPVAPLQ

[7] = target: Serine/threonine-protein kinase 24 (Homo sapiens) (UniProt Q9Y6E0); assay: MST3 SGC Tm panel (DSF); details: for ΔTm: Compound concentration 10.0 uM
[8] = target: D(1A) dopamine receptor (Homo sapiens) (UniProt P21728); details: Compound concentration 10.0 uM
[9] = target: Alpha-1D adrenergic receptor (Homo sapiens) (UniProt P25100); details: Compound concentration 10.0 uM
[10] = target: Muscarinic acetylcholine receptor M3 (Homo sapiens) (UniProt P20309); details: Compound concentration 10.0 uM
[11] = target: Dual specificity protein kinase CLK1 (Homo sapiens) (UniProt P49759); assay: CLK1 SGC Tm panel (DSF); details: for ΔTm: Compound concentration 10.0 uM
[12] = target: T2, Serine/threonine-protein kinase Nek2 (Homo sapiens) (UniProt P51955); assay: NEK2 SGC Tm panel (DSF); details: for ΔTm: Compound concentration 10.0 uM
T2 sequence (whole entry): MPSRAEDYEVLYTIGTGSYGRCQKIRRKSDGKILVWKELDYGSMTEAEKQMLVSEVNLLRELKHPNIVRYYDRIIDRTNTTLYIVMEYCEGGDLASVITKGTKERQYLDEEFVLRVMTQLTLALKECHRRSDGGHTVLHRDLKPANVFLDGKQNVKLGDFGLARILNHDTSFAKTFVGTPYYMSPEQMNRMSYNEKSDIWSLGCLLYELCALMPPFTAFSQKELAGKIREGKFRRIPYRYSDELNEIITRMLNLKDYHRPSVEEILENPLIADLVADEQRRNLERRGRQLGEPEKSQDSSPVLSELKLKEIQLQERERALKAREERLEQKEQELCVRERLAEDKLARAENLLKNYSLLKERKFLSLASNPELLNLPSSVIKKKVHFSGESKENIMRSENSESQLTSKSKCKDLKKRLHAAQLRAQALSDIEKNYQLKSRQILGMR

[13] = target: Sodium-dependent noradrenaline transporter (Homo sapiens, UniProt P23975); details: Compound concentration 10.0 uM
[14] = target: T3, Calcium/calmodulin-dependent protein kinase type IV (Homo sapiens) (UniProt Q16566); assay: CAMK4 SGC Tm panel (DSF); details: for ΔTm: Compound concentration 10.0 uM
T3 sequence (whole entry): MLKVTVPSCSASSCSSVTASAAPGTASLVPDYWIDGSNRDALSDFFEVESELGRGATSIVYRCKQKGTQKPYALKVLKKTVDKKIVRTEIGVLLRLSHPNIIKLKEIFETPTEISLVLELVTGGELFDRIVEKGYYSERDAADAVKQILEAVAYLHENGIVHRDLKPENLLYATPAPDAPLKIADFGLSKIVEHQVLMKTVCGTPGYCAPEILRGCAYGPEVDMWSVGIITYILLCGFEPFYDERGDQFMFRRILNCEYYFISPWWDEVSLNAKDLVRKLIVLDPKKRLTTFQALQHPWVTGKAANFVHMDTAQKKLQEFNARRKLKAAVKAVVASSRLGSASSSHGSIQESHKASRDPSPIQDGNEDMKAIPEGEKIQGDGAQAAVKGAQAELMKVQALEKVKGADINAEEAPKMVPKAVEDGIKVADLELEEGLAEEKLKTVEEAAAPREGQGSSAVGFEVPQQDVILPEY

[15] = target: 5-hydroxytryptamine receptor 5A (Homo sapiens) (UniProt P47898); details: Compound concentration 10.0 uM
5-hydroxytryptamine receptor 5A (Homo sapiens), sequence (P47898 whole entry): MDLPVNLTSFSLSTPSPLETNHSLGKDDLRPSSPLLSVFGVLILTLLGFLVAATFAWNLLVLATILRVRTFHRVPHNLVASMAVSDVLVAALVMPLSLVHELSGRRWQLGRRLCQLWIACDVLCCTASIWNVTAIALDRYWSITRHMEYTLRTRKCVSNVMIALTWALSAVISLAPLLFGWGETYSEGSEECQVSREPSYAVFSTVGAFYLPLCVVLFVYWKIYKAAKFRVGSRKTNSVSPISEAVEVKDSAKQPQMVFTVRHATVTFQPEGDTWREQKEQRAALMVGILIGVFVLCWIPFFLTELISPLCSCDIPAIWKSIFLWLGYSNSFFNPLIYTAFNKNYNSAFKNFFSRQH

[16] = target: Aurora kinase B (Homo sapiens) (UniProt Q96GD4); assay: AURKB SGC Tm panel (DSF); details: for ΔTm: Compound concentration 10.0 uM
Aurora kinase B (Homo sapiens), sequence (Q96GD4 whole entry): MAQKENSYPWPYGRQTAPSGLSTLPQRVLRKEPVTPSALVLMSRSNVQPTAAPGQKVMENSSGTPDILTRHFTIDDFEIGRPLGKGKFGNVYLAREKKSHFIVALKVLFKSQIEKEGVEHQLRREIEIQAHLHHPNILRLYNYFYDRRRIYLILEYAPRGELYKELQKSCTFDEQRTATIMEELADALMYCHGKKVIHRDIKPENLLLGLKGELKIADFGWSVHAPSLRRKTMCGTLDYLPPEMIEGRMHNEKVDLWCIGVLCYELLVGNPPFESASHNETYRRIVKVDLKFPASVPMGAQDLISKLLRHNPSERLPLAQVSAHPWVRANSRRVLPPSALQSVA

[17] = target: Mitogen-activated protein kinase 10 (Homo sapiens) (UniProt P53779); assay: MAPK10 SGC Tm panel (DSF); details: for ΔTm: Compound concentration 10.0 uM
Mitogen-activated protein kinase 10 (Homo sapiens), sequence (P53779 whole entry): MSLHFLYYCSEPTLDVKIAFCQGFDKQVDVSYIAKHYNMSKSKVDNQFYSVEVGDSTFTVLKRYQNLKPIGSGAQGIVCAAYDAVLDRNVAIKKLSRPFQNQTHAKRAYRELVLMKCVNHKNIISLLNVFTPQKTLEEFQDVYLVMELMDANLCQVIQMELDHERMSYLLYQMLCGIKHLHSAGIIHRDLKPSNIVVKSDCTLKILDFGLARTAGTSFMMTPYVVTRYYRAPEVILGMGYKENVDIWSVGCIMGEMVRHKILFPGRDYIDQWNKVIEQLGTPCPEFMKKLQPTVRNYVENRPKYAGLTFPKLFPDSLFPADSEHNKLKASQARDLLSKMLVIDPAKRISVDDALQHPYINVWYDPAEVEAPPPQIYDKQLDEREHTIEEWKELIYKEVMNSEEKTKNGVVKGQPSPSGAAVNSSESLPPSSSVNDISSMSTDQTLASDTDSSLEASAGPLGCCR

[18] = target: Alpha-1B adrenergic receptor (Homo sapiens) (UniProt P35368); details: Compound concentration 10.0 uM
[19] = target: T4, Dual specificity mitogen-activated protein kinase kinase 6 (Homo sapiens) (UniProt P52564); assay: MAP2K6 SGC Tm panel (DSF); details: for ΔTm: Compound concentration 10.0 uM
T4 sequence (whole entry): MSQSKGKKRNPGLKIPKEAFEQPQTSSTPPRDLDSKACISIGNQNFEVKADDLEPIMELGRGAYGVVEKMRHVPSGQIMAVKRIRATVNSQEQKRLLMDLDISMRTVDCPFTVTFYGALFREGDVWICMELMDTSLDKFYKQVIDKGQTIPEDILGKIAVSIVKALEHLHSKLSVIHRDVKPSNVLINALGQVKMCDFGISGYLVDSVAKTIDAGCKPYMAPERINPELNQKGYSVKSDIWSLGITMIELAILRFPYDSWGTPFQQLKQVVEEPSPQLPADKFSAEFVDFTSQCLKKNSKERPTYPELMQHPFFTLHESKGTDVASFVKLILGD

Serine/threonine-protein kinase Chk2 (Homo sapiens), sequence (O96017 whole entry): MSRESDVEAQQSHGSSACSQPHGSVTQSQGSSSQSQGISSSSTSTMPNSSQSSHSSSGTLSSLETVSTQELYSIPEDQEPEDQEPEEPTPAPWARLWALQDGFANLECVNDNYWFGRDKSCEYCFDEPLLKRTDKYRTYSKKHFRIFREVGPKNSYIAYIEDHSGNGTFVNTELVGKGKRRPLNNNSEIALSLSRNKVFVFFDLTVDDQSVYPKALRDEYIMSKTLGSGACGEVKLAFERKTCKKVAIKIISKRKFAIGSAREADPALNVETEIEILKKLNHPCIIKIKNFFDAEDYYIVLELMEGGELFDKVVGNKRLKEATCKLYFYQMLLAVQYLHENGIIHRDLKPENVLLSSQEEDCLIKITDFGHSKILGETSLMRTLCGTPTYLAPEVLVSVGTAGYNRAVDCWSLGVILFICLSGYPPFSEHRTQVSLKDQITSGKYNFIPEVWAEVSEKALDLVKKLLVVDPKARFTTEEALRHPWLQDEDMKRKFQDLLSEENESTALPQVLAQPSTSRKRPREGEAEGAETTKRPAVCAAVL
Serine/threonine-protein kinase Nek7 (Homo sapiens), sequence (Q8TDX7 whole entry, looked up): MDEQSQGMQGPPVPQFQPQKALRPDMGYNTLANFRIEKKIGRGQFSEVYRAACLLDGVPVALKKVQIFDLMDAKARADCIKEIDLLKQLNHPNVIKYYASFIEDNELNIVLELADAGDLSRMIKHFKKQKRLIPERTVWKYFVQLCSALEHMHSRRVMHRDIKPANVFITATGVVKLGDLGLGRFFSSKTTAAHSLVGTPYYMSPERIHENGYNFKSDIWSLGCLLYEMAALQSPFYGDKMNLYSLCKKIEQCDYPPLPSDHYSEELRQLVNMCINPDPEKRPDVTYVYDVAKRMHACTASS

delta Tm Staurosporine positive control [1]	ΔTm [1]	delta Tm Staurosporine positive control [2]	ΔTm [2]	delta Tm Staurosporine positive control [3]	ΔTm [3]	delta Tm Staurosporine positive control [4]	ΔTm [4]	delta Tm Staurosporine positive control [5]	ΔTm [5]	delta Tm Staurosporine positive control [6]	ΔTm [6]	delta Tm Staurosporine positive control [7]	ΔTm [7]	inhibition [8] [%]	inhibition [9] [%]	inhibition [10] [%]	delta Tm Staurosporine positive control [11]	ΔTm [11]	delta Tm Staurosporine positive control [12]	Compound	further results
16.7	-0.718	1.29	0.0604	6.38	0.234	14.2	0	8.26	0.39	14.5	0.588	6.74	-5.55	30.9	30.4	9.46	10.9	0.489	3.7	COC[C@H](NC(=O)c1ccn(S(C)(=O)=O)c1)C(=O)Nc1nc(-c2cccc(-c3ccn(C)n3)c2)cs1	ΔTm [12]: 0.182; inhibition [13]: 45.5%; delta Tm Staurosporine positive control [14]: 8.78; ΔTm [14]: 0.803; inhibition [15]: 11.2%; delta Tm Staurosporine positive control [16]: 13.6; ΔTm [16]: 1.29; delta Tm Staurosporine positive control [17]: 7.41; ΔTm [17]: 0.595; inhibition [18]: -5.17%; delta Tm Staurosporine positive control [19]: 12.1; ΔTm [19]: 1.51
16.7	-1.06	1.29	0.0219	6.38	0.207	14.2	0	8.26	0.15	14.5	0.509	6.74	-1.99	38.9	42	40.1	10.9	0.522	3.7	C[C@H](NC(=O)c1cn(C2(C#N)CC2)cn1)C(=O)Nc1nc(-c2cccc(-c3ccn(C)n3)c2)cs1	ΔTm [12]: -0.146; inhibition [13]: 69.8%; delta Tm Staurosporine positive control [14]: 8.78; ΔTm [14]: 0.413; inhibition [15]: 13.9%; delta Tm Staurosporine positive control [16]: 13.6; ΔTm [16]: 0.802; delta Tm Staurosporine positive control [17]: 7.41; ΔTm [17]: 1.8; inhibition [18]: 8%; delta Tm Staurosporine positive control [19]: 12.1; ΔTm [19]: 1.65
